We go through 17 molecules from publication PMC3615092, “Identification, Design and Bio-Evaluation of Novel Hsp90 Inhibitors by Ligand-Based Virtual Screening” (PLoS ONE, 2013).

For one test, the target named is T1, Hsp70 (Homo sapiens, UniProt P0DMV8).
T1 construct: purchased Enzo Life science ALX-201-214-C025
Kind of test: Hsp70 ATPase activity assay (ADP Hunter Plus). It is filed as biochemical. The conditions noted are these: for IC50: ADP Hunter Plus assay; for selectivity HSP90 over HSP70: ratio of IC50 HSP70 / HSP90, ADP fluorescence assay. An excerpt:
The following materials were used for the biological evaluation: The PET-28a HSP90 expression vector was constructed. The Ni^2+-nitrilo-triacetic acid (NTA) agarose was purchased from General Electric (USA). […] Isopropyl-1-thio-d-galactopyranoside (IPTG) was purchased from Sigma (St. Lousi. MO). Antibodies of β-Actin, Hsp70, Hsp90, c-Raf, Akt, Src, Phospho-Src, ERK and Her-2 were purchased from Cell Signaling Technology (Danvers, MA). Anti-p-Akt(S473) was purchased from Signalway Antibody (Baltimore, MD). HIF-1α antibody was purchased from R&D systems. The stock solution of Hsp90 was prepared in a 20 mM Tris-Cl buffer with a pH 7.4, and concentration was fixed at 5.0 μM. […] The screened out compounds were purchased from SPECS and dissolved in DMSO (Sigma, St. Louis, MO) to make a final concentration of 10^−2 mol/L and were stored at −20°C. […] The water used in the experiments was thrice-distilled and all other materials were of analytical reagent grade.
Hsp70 ATPase activity was measured using Discover RX ADP Hunter^TM Plus Assay kit assay as descripted in the manufacturer's instructions. Breifly, Hsp70 (3 μM) was incubated with 1 mM ATP in 100 mM Tris pH 7.4 at 37°C for 3 h in the presence or absence of various concentrations of test compounds. ADP generation was measured using Varioskan multimode microplate spectrophotometer (540 nm excitation and 620 nm emission). Fluorescence intensity values measured for Hsp70 without any testing compound was assumed as 100% of enzyme activity. The background reaction rate was measured in a reaction lacking enzyme or substrate and subtracted from the experimental rates.

The target in test [1] is T2, Hsp90 (Homo sapiens, UniProt P07900).
T2 construct: The region encoding full-length Hsp90 was subcloned into pET28a; inferred from the pET28a vector and Ni-NTA purification; made in house; host or cells: E. coli
Description: Malachite green assay of Hsp90 ATPase activity. It is filed as biochemical. The conditions noted are these: for IC50: by malachite green assay; for inhibition at 40 µM: read-out: Inhibition rate (% in 40 μM). The protocol: The region encoding full-length Hsp90 was subcloned into pET28a. Protein expression in E. coli cells were induced with 0.5 mM IPTG. Cells were harvested after 20h of growth at 16°C and then disrupted by sonication. The soluble lysate was clarified by centrifugation and applied to a Ni^2+-nitrilo-triacetic acid (NTA) agarose column in a buffer (50 mM Tris-Cl, 300 mM NaCl, 10 mM Imidazole, 10% [v/v] Glycerol, 10 mM PMSF, 10 mM DTT). Hsp90 Protein was eluted with a linear gradient of 20–1000 mM imidazole. Hsp90 was identified by SDS-PAGE, and the high concentrated fraction was dialyzed against ATPase buffer (20 mM Tris-Cl, pH 7.5; 6 mM MgCl2; 20 mM KCl) and then aliquoted, frozen in liquid nitrogen, stored at −80°C.
The test compounds were diluted from mother plates (10 mM in 100% (v/v) DMSO) into daughter plates (200 μM in 2.0% (v/v) DMSO); 5 μL of test compound solution was added to each well (equivalent to a final concentration of 40 μM) of the 96-well assay plate. The first and last rows of the 96-well plate contained the appropriate concentration of DMSO were used as blank control. ATP was dissolved in the assay buffer to give a stock concentration of 2.5 mM and stored at room temperature. A 10 μL aliquot of ATP solution was added to each well to give a final assay concentration of 1 mM. Before the usage, Hsp90 protein was thawed on ice and suspended in chilled assay buffer to a stock concentration of 0.45 mg/mL, and the solution was kept on ice. The incubation was started by adding 10 μL of the stock Hsp90 to each well (except for the background wells which received 10 μL of assay buffer), giving a final assay volume of 25 μL. The plates were shaken for approximately 2 min and incubated for 3 h at 37°C.
The assay procedures were based on the literatures [33]–[35]. […] The reagent is initially dark brown, but on standing for ∼2 h at room temperature changes to a golden yellow and is ready for use. The assay buffer was 100 mM Tris–HCl, 20 mM KCl, 6 mM MgCl2, pH 7.4.
To stop the ATPase reactions, 80 μL of the malachite green reagent was added to each well.

The target in test [2] is T2, Hsp90. Description: ATP hydrolysis inhibition, ADP Hunter Plus (ADP fluorescence) assay. It is filed as biochemical. The conditions noted are these: by ADP fluorescence assay. The method, then: The first and last rows of the 96-well plate contained the appropriate concentration of DMSO were used as blank control. ATP was dissolved in the assay buffer to give a stock concentration of 2.5 mM and stored at room temperature. A 10 μL aliquot of ATP solution was added to each well to give a final assay concentration of 1 mM. Before the usage, Hsp90 protein was thawed on ice and suspended in chilled assay buffer to a stock concentration of 0.45 mg/mL, and the solution was kept on ice. […] The plates were shaken for approximately 2 min and incubated for 3 h at 37°C. The Discover RX ADP Hunter^TM Plus Assay kit (Discoverx, Fremont, CA) was used following the manufacturer's instructions. ATPase reactions were carried out after 3 h at 37°C temperature in presence of different concentrations of compounds. ADP generation was measured using Varioskan multimode microplate spectrophotometer (540 nm excitation and 620 nm emission). […] The background reaction rate was measured in a reaction lacking enzyme or substrate and subtracted from the experimental rates.

In another test the test system is HepG2. Description: Anti-proliferation MTT assay. It is filed as cell-based. The method, then: (§1) Cell viabilities were measured by a colorimetric assay using 3-(4, 5-dimethylthiaz-ol-2-yl)-2,5-diphenyltetrazoliumbromide (MTT, Sigma, Ltd.) as described previously. Experiments were carried out in triplicate in a parallel manner for each concentration of target compounds and the results were presented as mean ± SE. Control cells were given only culture media. After incubation for 48 h, absorbance (A) was measured at 570 nm. Survival ratio (%) was calculated using the following equation: survival ratio (%) = (Atreatment/Acontrol) × 100%.

A further test deals with MCF-7. Kind of test: Anti-proliferation MTT assay. It is filed as cell-based. The method, then:
as §1

The test system of the next test is A549. Description: Anti-proliferation MTT assay. It is filed as cell-based. The protocol: as §1
The subject of a further test is MDA-MB-231. Kind of test: Anti-proliferation MTT assay. In kind it is cell-based. The method, then:
as §1

For a further test, the system named is SK-BR-3. Kind of test: Anti-proliferation MTT assay. It is filed as cell-based. The protocol:
as §1

A further test has as its system HCT116. Description: Anti-proliferation MTT assay. It is filed as cell-based. The protocol: as §1
Where [3] appears, read: 40 μM, colorimetric assay for inorganic phosphate.
Where [4] appears, read: colorimetric assay for inorganic phosphate, 40 μM.

Read-outs that look alike come from different tables or passages of the source. Some results are limits rather than exact numbers.

T1 sequence (P0DMV8 whole entry): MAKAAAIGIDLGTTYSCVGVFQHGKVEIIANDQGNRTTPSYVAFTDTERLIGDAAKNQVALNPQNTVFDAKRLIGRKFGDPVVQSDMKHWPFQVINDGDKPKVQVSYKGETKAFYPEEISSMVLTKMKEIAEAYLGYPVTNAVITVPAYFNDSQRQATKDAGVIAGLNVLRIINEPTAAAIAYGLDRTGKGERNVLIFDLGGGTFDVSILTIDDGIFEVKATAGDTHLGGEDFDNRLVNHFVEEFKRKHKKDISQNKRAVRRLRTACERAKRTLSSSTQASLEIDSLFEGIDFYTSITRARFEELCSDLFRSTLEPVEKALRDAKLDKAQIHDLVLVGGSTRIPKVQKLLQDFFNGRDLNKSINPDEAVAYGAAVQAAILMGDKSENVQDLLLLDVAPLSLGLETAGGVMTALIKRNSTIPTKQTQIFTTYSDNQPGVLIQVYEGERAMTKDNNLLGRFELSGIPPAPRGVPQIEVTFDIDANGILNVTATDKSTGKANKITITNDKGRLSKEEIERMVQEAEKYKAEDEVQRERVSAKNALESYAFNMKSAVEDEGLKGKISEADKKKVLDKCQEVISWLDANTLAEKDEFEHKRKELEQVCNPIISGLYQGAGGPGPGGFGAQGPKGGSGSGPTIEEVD

In the case of `CC(C)c1cc(C(=O)N2Cc3ccc(CN4CCN(C)CC4)cc3C2)c(O)cc1O` [AT13387], the IC50 turned out to be 16300 ± 1200 nM on Hsp70, 370 ± 50 nM at Hsp90 [1] and 340 ± 80 nM at Hsp90 [2]. Further, the “selectivity HSP90 over HSP70” value on Hsp70 was “over 47 times”.
As for `CO[C@H]1/C=C\C=C(/C)C(=O)NC2=CC(=O)C(NCCN(C)C)=C(C[C@@H](C)C[C@H](OC)[C@H](O)[C@@H](C)/C=C(\C)[C@@H]1OC(N)=O)C2=O` [Compound 17-DMAG, 17-Dimethylamino-ethylamino-17-demethoxygeldanamycin], the IC50 in the test on HepG2 (48 h) came out at 490 nM; in the test on MCF-7 (48 h) it was 37 nM; with A549 (48 h), 57 nM; in the test on MDA-MB-231 (48 h), 48 nM; in the test on SK-BR-3 (48 h) it was 1210 nM; with HCT116 (48 h) it was 260 nM. Also, the “Inhibition rate (% in 40 μM)” value at Hsp90 [1] (setting [3]) came to 90%.
Regarding `CN(C)S(=O)(=O)N1CCN(CC(O)COc2ccc3cc(Br)ccc3c2)CC1` (stereo not shown) [Compound S1], the IC50 in the test on HepG2 (Homo sapiens, HepG2, 48 h) was determined as 2270 nM; in the test on MCF-7 (Homo sapiens, MCF7, 48 h), 3790 nM; in the test with A549 (Homo sapiens, A549, 48 h) it was 25900 nM; in the test with MDA-MB-231 (Homo sapiens, MDA-MB-231, 48 h), 2270 nM; in the test with SK-BR-3 (Homo sapiens, SK-BR-3, 48 h), 15800 nM; in the test on HCT116 (Homo sapiens, HCT-116, 48 h), 4660 nM. The IC50 on Hsp70 is 28200 ± 2270 nM; against Hsp90 [1], 2440 ± 330 nM; at Hsp90 [2], 1610 nM. Also, at Hsp70, the “selectivity HSP90 over HSP70” value is “over 15 times”. In addition, the inhibition at 40 µM at Hsp90 [1] (setting [3]) is more than 50%.
Consider `CCOC(=O)c1c(C)n(CCOc2cccc3ccccc23)c2ccc(O)cc12` [Compound S2], for which the inhibition at 40 µM at Hsp90 [1] is -10.2%.
For the molecule `COc1ccc(CNC(=O)CSc2nc3ccc(N)cc3s2)cc1` [Compound S3], the inhibition at 40 µM at Hsp90 [1] (setting [3]) was -11.6%.
For the molecule `COCCCN1C(=O)C(O)=C(C(=O)c2ccc(OC(C)C)c(C)c2)C1c1cccnc1` (stereo not shown) [Compound S4], the inhibition at 40 µM on Hsp90 [1] (setting [3]) is 48.2%. The “Hsp90 inhibition activity (in words)” value at Hsp90 [1] (setting [4]) is recorded as “moderate”.
On to `CCCOc1ccc(C(=O)C2=C(O)C(=O)N(Cc3cccnc3)C2c2ccccc2)cc1` (stereo not shown) [Compound S5], for which the inhibition at 40 µM at Hsp90 [1] (setting [3]) was -14.5%.
Regarding `CCCCCOc1cccc(C2C(C(=O)c3cccs3)=C(O)C(=O)N2CCN2CCOCC2)c1` (stereo not shown) [Compound S6], on Hsp90 [1] (setting [3]), the inhibition at 40 µM was -7.53%.
For the molecule `O=C(NNC1CC(=O)N(c2ccc(Br)cc2)C1=O)c1cccnc1` (stereo not shown) [Compound S7], at Hsp90 [1] (setting [3]), the inhibition at 40 µM is -35.1%.
Consider `COc1ccc(-c2csc3ncn(CC(=O)Nc4ccc(C)cc4C)c(=O)c23)cc1OC` [Compound S9], for which the inhibition at 40 µM at Hsp90 [1] (setting [3]) was -47.8%.
Consider `CCOc1ccc(-c2csc3ncn(CC(=O)Nc4cc(C)ccc4C)c(=O)c23)cc1` [Compound S10], for which the inhibition at 40 µM on Hsp90 [1] (setting [3]) was found to be 36%.
`COc1ccc(-c2csc3ncn(CC(=O)NC4CCCCC4)c(=O)c23)cc1OC` [Compound S11]: the inhibition at 40 µM at Hsp90 [1] (setting [3]) is 42.8%. Moreover, the “Hsp90 inhibition activity (in words)” value at Hsp90 [1] (setting [4]) is given as “moderate”.
Take `CCOC(=O)C1=C(Nc2ccc(OC)cc2)S/C(=C\c2ccc[nH]2)C1=O` [Compound S12]: the inhibition at 40 µM at Hsp90 [1] (setting [3]) came out at 12.6%.
As for `Cc1ccc(S(=O)(=O)N2CCN(CC(O)COc3ccc(-c4ccccc4)cc3)CC2)cc1C` (stereo not shown) [Compound S14], the inhibition at 40 µM at Hsp90 [1] (setting [3]) is 47.5%. The “Hsp90 inhibition activity (in words)” value at Hsp90 [1] (setting [4]) is listed as “moderate”.
Regarding `Cc1cccc(OCCn2c(SCC(O)CO)nc3ccccc32)c1` (stereo not shown) [Compound S15], the inhibition at 40 µM on Hsp90 [1] (setting [3]) was determined as 18.9%.
Same read-out and setting: then `COc1cccc(CNc2nc(SC)ncc2CO)c1` [Compound S16], with -6.22%.
As for `COCCN1C(=O)C(O)=C(C(=O)c2ccc3c(c2)CC(C)O3)C1c1cccc(OC)c1` (stereo not shown) [Compound S17], at Hsp90 [1] (setting [3]), the inhibition at 40 µM worked out at 48.8%. For the same molecule, on Hsp90 [1] (setting [4]), the “Hsp90 inhibition activity (in words)” value is “moderate”.
